Data set [1] can be described thus: pKa values of stabilizers. Conditions: carboxylic acid group. The format is physicochemical.
For data set [2], the target named is T1, TTR (Homo sapiens, UniProt P02766). The note with it: Tafamidis Phase 2 (FDA CDER background package); diflunisal observational study (Hanson 2018); cited from earlier work.
In data set [3] the target is T1, TTR. Briefly: Isothermal titration calorimetry (ITC) with TTR in buffer. The note with it: 25° C.; for Kd: PBS pH 7.4, single-site binding model. (In general: Isothermal titration calorimetry measures the heat released or taken up as one component is titrated into another.)
Procedure: (§1) Isothermal Titration Calorimetry (ITC). Binding experiments were performed using MicroCal PEAQ-ITC at 25° C. […] 19 injections of ligand (2.0 μL each) were injected into the ITC cell (at 25° C.) to the point that TTR was fully saturated with ligand. Calorimetric data were plotted and fitted using the standard single-site binding model.
Data set [4] has as its target T2, TTR (Canis lupus familiaris, UniProt A0A8I3NFK0).
T2 construct: from tissue; host or cells: serum of orally dosed beagle dogs
Briefly: Single oral dose PK-PD in dogs, TTR occupancy by FPE. The format is in vivo, beagle dog. Conditions: 5 or 20 mg/kg AG10 HCl single oral dose. As for the experimental part:
FPE assay for binding TTR in buffer and human or dog serum. […] The FPE probe is a thioester TTR ligand that is not fluorescent by itself, however upon binding to the T4 binding site of TTR it covalently modifies lysine 15 (K15), creating a fluorescent conjugate. Ligands that bind to the T4 site of TTR will decrease FPE probe binding as observed by lower fluorescence. The FPE assay was also adapted for use with dog serum. FPE with TTR in buffer: An aliquot of 98 μL of TTR in PBS (pH 7.4, final concentration: 2.5 μM) was mixed with 1 μL of test compounds (2.5 μM) and 1 μL of FPE probe (0.18 mM stock solution in DMSO: final concentration: 1.8 μM). The change in fluorescence (λex=328 nm and λem=384 nm) were monitored using a microplate spectrophotometer reader (SpectraMax M5) for 6 hr at rt. […] The change in fluorescence (λex=328 nm and λem=384 nm) were monitored using a microplate spectrophotometer reader (SpectraMax M5) for 6 hr at rt.
Blood was collected and analyzed pre-dose and at 2, 4, 6, 8, 12 and 24 hr post-dose.

Data set [5] deals with TTR. Briefly: Phase 2 study in ATTR-CM patients, serum TTR concentration (ARUP Prealbumin assay). The format is in vivo, human. The note with it: all genotypes, ATTR-CM patients. As for the experimental part:
Screening and randomization will be followed by a 28-day blinded, placebo-controlled treatment period. Approximately 45 subjects are planned to enroll in the Phase 2 study.
An ARUP Prealbumin assay was also used to analyze TTR blood serum concentration in the MAD cohorts tested. ARUP analyzes samples for prealbumin using the prealbumin reagent kit provided by Roche Diagnostics and run on the Roche Diagnostics c702 module. Lowest reportable limit is 3 mg/dL.
The phase 2 clinical study was performed essentially as described in Example 3. A total of 49 patents were included instead of 45: 16 receiving 400 mg bid; 16 receiving 800 mg bid; and 17 receiving placebo.
TTR stabilization was measured ex vivo using the FPE and Western blot assays described at the beginning of the examples section. TTR stabilization was measured in vivo by monitoring TTR serum concentrations in trial participants.

In a further data set the target is purified human TTRwt (Homo sapiens, UniProt P02766). Briefly: Modified FPE assay with purified TTR plus other serum proteins (selectivity). The format is binding. The note with it: purified TTR 5 μM.
The target in data set [6] is T3, human serum albumin (HSA) (Homo sapiens, UniProt P02768). Briefly: ITC against human serum albumin. Conditions: ITC titration against human serum albumin.
Procedure: as §1
Data set [7] deals with T3, human serum albumin (HSA). Briefly: Gel filtration and dialysis binding to human serum albumin. More on the design: albumin from human serum; Sigma Aldrich, catalog no.: A3782; purchased Sigma Aldrich A3782; host or cells: human serum. Conditions: 30 μM compound, 600 μM albumin. As for the experimental part:
The concentration of HSA (i.e. concentration at time zero) was also determined using NanoDrop™ (based on calibration curves of known HAS concentrations). […] The concentration of test compounds in these fractions (i.e. conc. at time zero) was evaluated using HPLC (based on calibration curves of known concentration of test compounds). 500 μL of each HSA/test compound samples was then added to a Slide-A-Lyzer Dialysis Cassette G2 (3.5K MWCO, Thermo Scientific, catalog no. P187722). The dialysis Cassettes were placed in 100 ml of assay buffer and stirred at room temperature. After 24 hr, the samples were removed from dialysis cassette and the volume was measured. The concentration of HAS and test compounds were determined using NanoDrop™ and HPLC as described above.
(In general: Size exclusion chromatography separates by hydrodynamic size, large species first.)

The target of another data set is T4, TTR in human serum (Homo sapiens, UniProt P02766).
T4 construct: pooled human serum (prepared from human male AB plasma, Sigma; catalog no; H4522; TTR concentration 5 μM); tissue Sigma H4522; host or cells: pooled human serum from human male AB plasma
Briefly: FPE assay in human serum. It counts as binding. Conditions: stabilizers 10 μM, human serum TTR 5 μM; FPE.

Where “and” joins values, the source holds several entries; their conditions need not be identical. Equal values may be shown once.

The term pKa denotes the pH at which an ionisable group is half protonated. Lower therefore signals a stronger acid or weaker base. As usually defined, the Kd is the constant that tells how readily two partners part at equilibrium. Low values mean higher affinity, high ones lower affinity.

T3 sequence (P02768 25-609): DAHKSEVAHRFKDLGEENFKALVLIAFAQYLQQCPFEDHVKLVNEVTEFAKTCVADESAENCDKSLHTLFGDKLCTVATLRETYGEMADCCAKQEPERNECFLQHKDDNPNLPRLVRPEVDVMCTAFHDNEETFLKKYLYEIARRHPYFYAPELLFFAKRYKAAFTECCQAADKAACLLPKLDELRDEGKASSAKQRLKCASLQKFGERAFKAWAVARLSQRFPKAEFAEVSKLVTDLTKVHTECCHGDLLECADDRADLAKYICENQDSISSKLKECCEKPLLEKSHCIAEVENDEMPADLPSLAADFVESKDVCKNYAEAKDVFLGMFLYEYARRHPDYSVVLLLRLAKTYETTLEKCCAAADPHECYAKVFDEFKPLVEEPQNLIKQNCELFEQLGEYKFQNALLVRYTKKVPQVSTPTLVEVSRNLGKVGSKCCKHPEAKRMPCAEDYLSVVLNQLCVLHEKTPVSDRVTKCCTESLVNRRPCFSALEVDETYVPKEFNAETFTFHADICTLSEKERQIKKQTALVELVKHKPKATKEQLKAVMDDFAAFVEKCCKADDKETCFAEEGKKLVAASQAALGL
Source text for TTR in human serum: FPE assay for binding TTR in buffer and human or dog serum. […] The FPE probe is a thioester TTR ligand that is not fluorescent by itself, however upon binding to the T4 binding site of TTR it covalently modifies lysine 15 (K15), creating a fluorescent conjugate. Ligands that bind to the T4 site of TTR will decrease FPE probe binding as observed by lower fluorescence. […] The change in fluorescence (λex=328 nm and λem=384 nm) were monitored using a microplate spectrophotometer reader (SpectraMax M5) for 6 hr at rt. […] The change in fluorescence (λex=328 nm and λem=384 nm) were monitored using a microplate spectrophotometer reader (SpectraMax M5) for 6 hr at rt.
Procedure for purified human TTRwt: The percentage of FPE probe binding to TTR in the presence of serum proteins measured after 3 hr of incubation was used to calculate % TTR occupancy.

In data set [1], `O=C(O)c1cc(-c2ccc(F)cc2F)ccc1O` [Diflunisal, reference compound] showed a pKa of 2.94. Besides, the “change in serum TTR levels” value at TTR [2] was “increased serum TTR levels”. On TTR [3], the TΔS worked out at 0.34 kcal/mol and the ΔH is -8.38 kcal/mol.

Turning to `COC(=O)c1ccc(F)c(OCCCc2c(C)n[nH]c2C)c1` [compound 2, Methyl 3-(3-(3,5-dimethyl-1H-pyrazol-4-yl)propoxy)-4-fluorobenzoate], at TTR [3], the TΔS is listed as 2.5 kcal/mol, the ΔG was -8.99 kcal/mol, the ΔH is -6.49 kcal/mol and binding was characterised by a dissociation constant (Kd) of 258 ± 17 nM.

Consider `Cc1n[nH]c(C)c1CCCOc1cc(C(=O)O)ccc1F.Cl` [AG10 HCl], for which the “TTR occupancy, dose comparison” value on TTR [4] is listed as “enhanced TTR occupancy in the 20 mg/kg vs. 5 mg/kg dose groups”. For the same compound, the “Blood Serum TTR Concentration, Average Change (baseline to day 28)” value was 36% in the data set with TTR [5] (400 mg b.i.d.) and 50% in the data set with TTR [5] (800 mg b.i.d.).

Consider `O=C(O)c1ccc2nc(-c3cc(Cl)cc(Cl)c3)oc2c1` [Tafamidis, 2-(3,5-dichlorophenyl)-1,3-benzoxazole-6-carboxylic acid, reference compound], for which the TTR occupancy came to 68.2±0.1% at purified human TTRwt (in the absence of albumin) and 41.5±0.9% on purified human TTRwt (in the presence of albumin (600 μM)). Further, the pKa in data set [1] was 3.73. The “change in serum TTR levels” value at TTR [2] is “increased serum TTR levels”. The Kd in data set [6] turned out to be 2300 nM. The same compound gave a TΔS on TTR [3] of 6.39 kcal/mol. Also, the ΔH at TTR [3] was -5.0 kcal/mol; at TTR [3] (listed as tafamidis) it was -5.00 kcal/mol and -5.0 kcal/mol. In [7], the “concentration bound to HSA following dialysis vs buffer for 24 hr” value came out at 18.8 ± 2.1 µM. Moreover, the “concentration bound to albumin at time 0 (immediately after gel filtration)” value in [7] worked out at 24.1 ± 1.1 µM.

For the compound `Cc1n[nH]c(C)c1CCCOc1cc(C(=O)O)ccc1I` [compound 1, 3-(3-(3,5-dimethyl-1H-pyrazol-4-yl)propoxy)-4-iodobenzoic acid], the “% TTR Occupancy in Serum (2:1 ratio)” value on TTR in human serum is recorded as 75.9 ± 3.1%. Also, at TTR [3], the TΔS was -0.21 kcal/mol, the ΔG was -9.61 kcal/mol, the ΔH is -9.82 kcal/mol and the dissociation constant Kd was found to be 90 ± 14 nM.

At TTR [3], `CCc1n[nH]c(CC)c1CCCOc1cc(C(=O)O)ccc1F` [compound 4, 3-(3-(3,5-diethyl-1H-pyrazol-4-yl)propoxy)-4-fluorobenzoic acid] gave a TΔS of 6.0 kcal/mol, a ΔG of -8.1 kcal/mol, a ΔH of -2.1 kcal/mol and a Kd of 1250 ± 79 nM.

On TTR [3], `Cc1nn(C)c(C)c1CCCOc1cc(C(=O)O)ccc1F` [compound 3, 4-fluoro-3-(3-(1,3,5-trimethyl-1H-pyrazol-4-yl)propoxy)benzoic acid] showed a TΔS of 4.27 kcal/mol, a ΔG of -9.0 kcal/mol, a ΔH of -4.73 kcal/mol and a Kd of 251 ± 12 nM.
